In US4900538A (Suntory Limited, priority 1982, dated 1990):
Where “and” joins values, the source holds several entries; their conditions need not be identical. Identical values can stand only once. Like-named read-outs stand apart in the source and are kept apart here.

Legend:
male CD-1 (ICR) mice = assay: Acute toxicity in mice (survival days)
Description: Male CD-1 (ICR) mice (12 weeks old) were used as test animals. The temperature in the animal room was maintained at 23° C. (±3° C.) and relative humidity was kept at 30-70%. Artificial lighting was carried out by illumination and darkening at successive intervals of 12 hours.
The test substances were dissolved in distilled water and intraperitoneally administered to the animals at a dose of 10 ml/kg.
The above t-test was carried out as follows.

[1] = tested on: Escherichia coli K 12 envA uvr B (λ), GY 5027; type: cell-based; conditions: for Inactivation of mutagenicity (phage induction activity) of adriamycin, dose-response: absence of S9 mix, molar ratios to adriamycin 1:1 to 30:1 (FIG. 12)
From the text: Inductest III (P. Morean, A. Bailone and R. Devoret: Proc. Natl. Acad. Sci. U.S.A., Vol. 73, No. 10, 3700-3704, '76). This method is a test for mutagenicity using prophage λ induction as an index. The strains used in this method were Escherichia coli K 12 envA uvr B (λ), GY 5027 and as λ indicator GY 4015 (Amp R).
This method uses phage induction activity as an index.
Potassium sulfite was used as a sulfite compound and potassium pyrosulfite which produces 2 equivalents of hydrogensulfite ion when dissolved in water was used as acid sulfite.
Dithionite produces two equivalents of hydrogensulfite ions when dissolved in water.
The molar ratio of sodium dithionite to daunomycin was 15:1. In FIGS. 13 and 14 the symbol indicates daunomycin alone and the symbol indicates daunomycin plus sodium dithionite.
Sodium sulfite was used as a sulfite at a molar ratio of sodium sulfite to daunomycin of 30:1.

[2] = tested on: strains used (Salmonella typhimurium, Escherichia coli); assay: Growth / survival of the strains used in the mutagenicity tests; type: cell-based; conditions: explains apparent reduction of mutagenicity at high levels
[3] = tested on: Salmonella typhimurium TA 98; assay: Ames test (Preincubation Method): mutagenicity and its inactivation by sulfite compounds; conditions: FIGS. 1, 6 and 7 (also FIGS. 3 and 4, Inductest III)
Description: This method is based on the Ames test (B. N. Ames, J. Mac Gann and E. Yamasaki: Mutation Research, Vol. 31, 347-364, '75). […] The strain used in this method was histidine requisite Salmonella typhimurium TA 100 and TA 98 (hereinafter referred to as St TA 100 and St TA 98).
At the same time, predetermined amounts of sodium sulfite, sodium hydrogensulfite (sodium acid sulfite), sodium pyrosulfite, sodium dithionite or sulphurous anhydride were dissolved in aseptic distilled water.
To 100 μl of each of the samples prepared in the above (2), 500 μl of 100 mM sodium phosphate buffer (pH 7.4) and 100 μl of a culture of St TA 100 or St TA 98 were added. Each mixture was shaken for 20 minutes at 37° C., added to 2.5 ml of a soft agar solution and spread on 0.1% glucose agar plate which had been supplemented with 0.1 μM per plate of histidine in order to create several divisions. After incubation at 37° C. for 48 hours, the number of colonies on the plate was counted as revertants. This method uses nutrient requisiteness of the above strains as an index.

DNA = conditions: cited from earlier work
L1210 cells = assay: In vivo carcinostatic activity against transplanted L1210 cells (ILS, survivors); conditions: i.p.
Description: Male BDF1 mice (57BL/6XDBA/2) weighing 19-20 g were used in this experiment. Feed (CA-1, Nihon Kurea Kabushiki Kaisha, Meguro-ku, Tokyo, Japan) and water were freely taken. 1×10^5 L 1210 cells were intraperitoneally transplanted to a mouse in each group of 6 mice. Test substances were intraperitoneally administered to mice 24 hours after i.p. injection of L1210 cells and thereafter one time each day for 5 days. Survival days of all of the mice were recorded and carcinostatic effects of the test compounds were measured by using index of life spread (ILS %) to the control group.

[4] = Japanese Patent application No. 144272/81; cited from earlier work

With `O=S([O-])O.[Na+]` [sodium hydrogensulfite] the “Reduction of toxicity of adriamycin (t-test of survival days)” value (male CD-1 (ICR) mice; experiment (1): adriamycin 20 mg/kg for 3 days, sodium hydrogensulfite 53.8 mg/kg (FIG. 10)) was “significantly reduced toxicity at a confidence level of 90%”.
In the case of `O=S([O-])S(=O)[O-].[Na+].[Na+]` [sodium dithionite], the “Inactivation of mutagenicity of daunomycin (phage induction)” value ([1]; molar ratio dithionite to daunomycin 15:1, independently of S9 mix (FIGS. 13 and 14)) is reported as “completely inactivated”.
For `COc1cccc2c1C(=O)c1c(O)c3c(c(O)c1C2=O)C[C@@](O)(C(C)=O)C[C@@H]3O[C@H]1C[C@H](N)[C@H](O)[C@H](C)O1` [daunomycin], the Cellular toxicity [2] is given as “have cellular toxicity”, the “Apparent change of mutagenicity at high levels of the antibiotic per se” value [3] is given as “appear to be reduced at high levels” and the “Base pairs of DNA reacting per one molecule (intercalation)” value (DNA) is given as 3 base pairs.
With `O=S([O-])[O-].[K+].[K+]` [sulfite, potassium sulfite] the “Inactivation of mutagenicity (phage induction activity) of adriamycin, dose-response” value [1] was “the more remarkably the mutagenicity of adriamycin was inactivated”.
In the case of `COc1cccc2c1C(=O)c1c(O)c3c(c(O)c1C2=O)C[C@@](O)(C(=O)CO)C[C@@H]3O[C@H]1C[C@H](N)[C@H](O)[C@H](C)O1` [adriamycin], the “Apparent change of mutagenicity at high levels of the antibiotic per se” value [3] is listed as “appear to be reduced at high levels”, the “Base pairs of DNA reacting per one molecule (intercalation)” value (DNA) is listed as 3 base pairs and the “Survivors (on Day 60)” value (L1210 cells; adriamycin 1 mg/kg/day × 5, sodium hydrogensulfite 0) is listed as 1 and 1/6. The “Survivors (on Day 60)” value (L1210 cells; adriamycin 3 mg/kg/day × 5, sodium hydrogensulfite 0) was “zero and 0/6”, the “Survival days, individual mouse” value (male CD-1 (ICR) mice; experiment (1): adriamycin 20 mg/kg i.p. daily for 3 days, no hydrogensulfite, mice No. 1-12 in order) was 0 days (8×) and 1 days (4×) and the “Survival days, mean (x)” value (male CD-1 (ICR) mice; experiment (1): adriamycin 20 mg/kg i.p. daily for 3 days, no hydrogensulfite, n=12, s 0.5778) was 0.3333 days. The “Survival days, individual mouse” value (male CD-1 (ICR) mice; experiment (2): adriamycin alone 20 mg/kg i.p., mice No. 1-11 in order, listed as ADM) was 14 days and 7 days and 6 days and 5 days and 4 days and the “Survival days, mean (x)” value (male CD-1 (ICR) mice; experiment (2): adriamycin alone 20 mg/kg i.p., n=11, s 2.747) was 7.545 days.
In the case of `O=S(O)O` [sulfite ion], the “Inactivation of mutagenicities of coffee, tobacco tar and spirits” value [4] is listed as “inactivates mutagenicities”.
In the case of `O=S([O-])S(=O)(=O)[O-].[K+].[K+]` [acid sulfite, potassium pyrosulfite], the “Inactivation of mutagenicity (phage induction activity) of adriamycin, dose-response” value [1] is reported as “the more remarkably the mutagenicity of adriamycin was inactivated”.
With `O=S(O)O` [hydrogensulfite ion] the “Hydrogensulfite ion in molar concentration necessary for complete inactivation of mutagenicity of adriamycin” value ([1]; absence of S9 mix (FIG. 5)) was “at least ten”.
With `O=S([O-])[O-].[Na+].[Na+]` [sodium sulfite] the “Inactivation of mutagenicity of daunomycin (phage induction)” value ([1]; molar ratio sodium sulfite to daunomycin 30:1, absence and presence of S9 mix (FIGS. 15 and 16)) was “completely inactivated”.
